# Measured values from patent publication US20240309007A1, “CRYSTALLINE FORMS OF 3-{4-[(2R)-2-AMINOPROPOXY]PHENYL}-N-[(1R)- 1-(3-FLUOROPHENYL) ETHYL]IMIDAZO[1,2-B]PYRIDAZIN-6-AMINE AND SALTS THEREOF” (ANHEART THERAPEUTICS (HANGZHOU) CO., LTD., priority 2021, published 2024).
# Assay: Solubility of the crystalline form in buffers, SGF, FaSSIF, FeSSIF and water at 37° C. (HPLC; XRPD of undissolved solid)
# Assay type: physicochemical
# Settings: for solubility at 2 h / solubility at 24 h: 37 °C, thermodynamic from solid
# Description: (1) a KCl/HCl buffer solution with a pH of 1.0, (2) a potassium hydrogen phthalate buffer solution with a pH of 3.0, (3) a sodium acetate trihydrate buffer solution with a pH of 4.5, (4) a potassium dihydrogen phosphate buffer solution with a pH of 6.0, (5) a potassium dihydrogen phosphate buffer solution with a pH of 7.5, (6) SGF (simulated gastric fluid), (7) FaSSIF (fasted state simulated intestinal fluids, pH=6.5), (8) FeSSIF (fed state simulated intestinal fluids, pH=5.0), and (9) water. Each mixture was then stirred in a water bath at 37° C. After equilibrated for 2 hours and 24 hours, concentrations (mg/mL) of the crystal in the mixture were measured by HPLC and the undissolved solid was evaluated by XRPD.
# [1] = FaSSIF (fasted state simulated intestinal fluid), pH 6.5, fassif
# [2] = FeSSIF (fed state simulated intestinal fluid), pH 5, fessif
# [3] = KCl/HCl buffer, pH 1, simulated gastric fluid
# [4] = SGF (simulated gastric fluid), 37° C.
# [5] = SGF (simulated gastric fluid), simulated gastric fluid
# [6] = potassium dihydrogen phosphate buffer pH 6.0, 37° C.
# [7] = potassium dihydrogen phosphate buffer pH 7.5, 37° C.
# [8] = potassium dihydrogen phosphate buffer, pH 6, aqueous buffer
# [9] = potassium dihydrogen phosphate buffer, pH 7.5, aqueous buffer
# [10] = potassium hydrogen phthalate buffer pH 3.0, 37° C.
# [11] = potassium hydrogen phthalate buffer, pH 3, aqueous buffer
# [12] = sodium acetate trihydrate buffer pH 4.5, 37° C.
# [13] = sodium acetate trihydrate buffer, pH 4.5, aqueous buffer
smiles,measurement,setting,value
"C[C@@H](N)COc1ccc(-c2cnc3ccc(N[C@H](C)c4cccc(F)c4)nn23)cc1 [crystalline form A of Compound 1 adipate, 3-{4-[(2R)-2-aminopropoxy]phenyl}-N-[(1R)-1-(3-fluorophenyl)ethyl]imidazo[1,2-b]pyridazin-6-amine]",solubility at 2 h,[1],331 µg/mL
same,solubility at 24 h,[1],225 µg/mL
same,XRPD of undissolved solid,"FaSSIF (pH=6.5), 37° C.",changed
same,pH after 24 hours,"FaSSIF (pH=6.5), 37° C.",5.008
same,solubility at 2 h,[2],493 µg/mL
same,solubility at 24 h,[2],143 µg/mL
same,XRPD of undissolved solid,"FeSSIF (pH=5.0), 37° C.",Form A
same,pH after 24 hours,"FeSSIF (pH=5.0), 37° C.",4.205
same,XRPD of undissolved solid,"KCl/HCl buffer pH 1.0, 37° C.",changed
same,pH after 24 hours,"KCl/HCl buffer pH 1.0, 37° C.",3.746
same,solubility at 2 h,[3],20400 µg/mL
same,solubility at 24 h,[3],17800 µg/mL
same,XRPD of undissolved solid,[4],changed
same,pH after 24 hours,[4],5.281
same,solubility at 2 h,[5],15600 µg/mL
same,solubility at 24 h,[5],16000 µg/mL
same,solubility (in words),pH 1,superior solubility
same,XRPD of undissolved solid,[6],Form A
same,pH after 24 hours,[6],5.055
same,XRPD of undissolved solid,[7],changed
same,pH after 24 hours,[7],5.570
same,solubility at 2 h,[8],2340 µg/mL
same,solubility at 24 h,[8],1700 µg/mL
same,solubility at 2 h,[9],597 µg/mL
same,solubility at 24 h,[9],419 µg/mL
same,XRPD of undissolved solid,[10],changed
same,pH after 24 hours,[10],4.418
same,solubility at 2 h,[11],1350 µg/mL
same,solubility at 24 h,[11],852 µg/mL
same,XRPD of undissolved solid,[12],Form A
same,pH after 24 hours,[12],4.541
same,solubility at 2 h,[13],2840 µg/mL
same,solubility at 24 h,[13],2880 µg/mL
same,XRPD of undissolved solid,"water, 37° C.",Form A
same,pH after 24 hours,"water, 37° C.",5.115
same,solubility at 2 h,water,1610 µg/mL
same,solubility at 24 h,water,1410 µg/mL
